In patent publication US20190290656A1, “PT(IV) PRODRUGS” (YISSUM RESEARCH DEVELOPMENT COMPANY OF THE HEBREW …, priority 2015, published 2019):

Key:
[1] = Cyclic voltammetric measurements; format: physicochemical; settings: cyclic voltammetry
Protocol: Finally, units 1a and 2a (Scheme 4) were used for the formation of a peptide bond, to afford 3a. DMSO turned out to be a good solvent for this reaction, although DMF also afforded good results. ^1H NMR assignments for 1a, 2a, and 3a (Scheme 4) are summarized in Table 4. Cylic voltammetric measurements (CV) were performed on complex 3a and 3b finding Ep values of −0.462 and −0.058 V. The first reduction peak was assigned to the reduction of the cisplatin-derivative portion of the dinuclear complex, because of similarity with the values reported for similar complexes. The less negative reduction peak was assigned to the Pt-Phenantroline metal center, because of similarity to the values reported for the bis axial phenylbutyrato Pt(IV) complex Pt56MeSS(PhB)2.

[2] = Stability in phosphate buffer (NMR); format: physicochemical; settings: phosphate buffer pH 7, 37° C.
Protocol: A solution 2.0 mM of 3a (Scheme 4) in sodium phosphate buffer (50 mM, pH=7) was kept at 37° C. for 3 days. NMR and HPLC measurements were performed every day.
A 2.0 mM solution of 3a in phosphate buffer at pH=7 was kept at 37° C. in order to assay its stability by mean of NMR spectroscopy (FIG. 7). […] The signal at 7.40 ppm was assigned to the amidic proton. The signals at 7.18 and 6.48 belong to the aromatic ring of the coordinated phenylbutyrate. The large difference in chemical shifts between the 2 ortho protons of the phenyl ring and the 3 meta and para protons, coupled with the unusually low chemical shifts for the aromatic ortho protons, indicates a strong intramolecular interaction with the phenanthroline. Finally, the peak at 6.37 belongs to the coordinated DCA.

[3] = system: PSN-1 cells; assay: Mitochondrial membrane potential (Mito-ID), PSN-1; format: cell-based, human; settings: 12 h of incubation
Protocol: Mitochondrial membrane potential (ΔΨ). ΔΨ was assayed using the Mito-ID Membrane Potential Kit according to the manufacturer's instructions (Enzo Life Sciences, Farmingdale, N.Y.). Briefly, 2008 and PSN1 cells were seeded onto 96-well microplates at 5.10^4 cells/well. After 24 h, cells were treated with tested compounds for 6, 12 and 24 h. The mitochondrial depolarizing agent, carbonyl cyanide 3-chlorophenylhydrazone (CCCP) was employed as positive control. An equal volume of cationic dye loading solution was added to each well and cell plates were incubated for additional 30 min at 37° C. Plates were read at excitation/emission wavelengths 490 and 590 nm using a fluorescence microplate reader (Fluoroskan Ascent FL, Labsystem, Finland).
In addition, it is interesting to note that treatment of 2008 and PSN-1 cells with 3a and 3b determined a significant time-dependent increase in the number of cells with depolarized mitochondria (data not shown). In particular, after 12 h of incubation, 3a elicited an increase of about 39% of PSN-1 cells with depolarized mitochondrial potential FIG. 12B). Again, the reference compound [Pt(DACH)(56Phen)] was effective in hampering cellular mitochondrial membrane potential in both tested cancer cell lines.

[4] = system: Histone deacetylase (HDAC); assay: Histone deacetylase assay (Fluor-de-Lys) in MCF-7 cells; format: cell-based, human; settings: MCF-7, 24 h, IC50 concentrations
Protocol: Histone deacetylase activity was determined using Fluor-de-Lys® HDAC fluorometric activity assay kit (Enzo Life Sciences International, Inc., Plymount Meeting, Pa., U.S.A.). […] Fluorescence was measured using a Fluoroskan Ascent FL (Labsystem, Finland) plate reader, with excitation at 360 nm and emission at 460 nm. For comparison purpose, the HDAC activity was also measured in nuclear extracts of MCF-7-treated cells by means of the same fluorometric activity assay kit. In this latter case, MCF-7 nuclear extracts were obtained as follow: cell pellets were re-suspended in lysis buffer [Tris.HCl (10 mM, pH 8.0), KCl (60 mM), EDTA (1.2 mM), DTT (1 mM), PMSF (0.05 mM), NP-40 (0.05%)] and kept on ice for 10 min. Subsequently, samples were centrifuged at 1000 g and re-suspended in the nuclear extraction buffer [Tris.HCl (20 mM, (pH 8.0), NaCl (420 mM), MgCl2 (0.7 mM), EDTA (0.25 mM), glycerol (25%)] for 30 min at 4° C., and then centrifuged at 15000 g for 15 min at 4° C.
The complexes described here were specifically designed to release either VPA of PhB inside the cells in the hope that they will inhibit HDAC activity paving the way for more efficient DNA platination. Thus, in addition to measuring the levels of DNA platination, we also measured the ability of these pro-drugs to inhibit HDAC activity in cells. […] For comparison purposes, the HDAC inhibitory effect determined by tested complexes was also assayed in isolated nuclei of MCF-7 treated cells (FIG. 3B).
The HDAC activity was determined by the Fluor de Lys® Fluorescent Cellular Activity Assay (Enzo Life Sciences).
Also, MCF-7 cells were incubated for 24 h with increasing concentrations of compounds I-VIII and their HDAC activity was determined. The IC50 values for the inhibition of HDAC activity in the cells are depicted in FIG. 3C.

Row | Molecule | Ep, first reduction peak (cisplatin-derivative portion) [1] [V] | Ep, less negative reduction peak (Pt-Phenantroline metal center) [1] [V] | Pt(IV)-phen reduced ([2]; after 2 days) | Pt(IV)-phen reduced ([2]; after 3 days) [%] | Pt(IV)-cisPt NMR signal (1101 ppm) relative to Pt(IV)-phen signal (703 ppm) ([2]; after a day) [%] | Pt(IV)-phen reduced ([2]; after one day) | increase of cells with depolarized mitochondrial potential [3] | effect on HDAC activity (in words) [4]
1 | c,c,t,t,c,c-[(DACH)(56Phen)(PhBu)Pt(μ-OOC—(CH2)2—CONH(CH2)3COO)—Pt(DCA)(NH3)2 (Cl2)](TFA)2 [Compound 3a] | −0.462 | −0.058 | about 9% | 10 | 15 | approximately 6.5% | about 39% | –
2 | [NH2][Pt]([NH2])([Cl])[Cl] [CDDP, Cisplatin, reference compound] | – | – | – | – | – | – | – | not effective in modifying HDAC activity
